Laboratory results from ChEMBL document CHEMBL1146806, “Halothiophene benzimidazoles as P1 surrogates of inhibitors of blood coagulation factor Xa” (Bioorg Med Chem Lett, 2004).

How the values were obtained:
[1] = Solubility in pH 7.0 phosphate buffer; format: physicochemical
[2] = Oral bioavailability in rat; format: ADME, organism-based; details: in vivo
[3] = molecular target: Coagulation factor X (Homo sapiens, UniProt P00742); assay: Binding affinity of the compoumd to human coagulation factor Xa
[4] = Oral bioavailability in dog; format: ADME, organism-based, Canis lupus familiaris; details: in vivo
[5] = molecular target: Prothrombin (Homo sapiens, UniProt P00734); assay: Binding affinity against human thrombin.
[6] = molecular target: Trypsin (Homo sapiens, UniProt P07477+P07478+P35030); assay: Binding affinity against human trypsin; format: protein assay
[7] = molecular target: Serine protease 1 (Homo sapiens, UniProt P07477); assay: Binding affinity of the compoumd against human trypsin was determined
Serine protease 1, sequence (P07477 whole entry): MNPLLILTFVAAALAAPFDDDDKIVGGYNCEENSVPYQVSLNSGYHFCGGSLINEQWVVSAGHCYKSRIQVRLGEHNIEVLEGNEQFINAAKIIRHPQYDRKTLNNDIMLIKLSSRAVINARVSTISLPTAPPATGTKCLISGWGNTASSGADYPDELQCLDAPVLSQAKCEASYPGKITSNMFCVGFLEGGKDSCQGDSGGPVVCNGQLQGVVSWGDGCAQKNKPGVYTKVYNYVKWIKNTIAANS

Coagulation factor X, sequence (P00742 41-179 limits assumed): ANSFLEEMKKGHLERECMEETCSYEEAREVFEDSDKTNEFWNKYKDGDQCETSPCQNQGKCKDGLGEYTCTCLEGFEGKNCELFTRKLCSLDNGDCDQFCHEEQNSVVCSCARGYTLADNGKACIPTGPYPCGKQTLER
Coagulation factor X, sequence (P00742 235-488 limits assumed): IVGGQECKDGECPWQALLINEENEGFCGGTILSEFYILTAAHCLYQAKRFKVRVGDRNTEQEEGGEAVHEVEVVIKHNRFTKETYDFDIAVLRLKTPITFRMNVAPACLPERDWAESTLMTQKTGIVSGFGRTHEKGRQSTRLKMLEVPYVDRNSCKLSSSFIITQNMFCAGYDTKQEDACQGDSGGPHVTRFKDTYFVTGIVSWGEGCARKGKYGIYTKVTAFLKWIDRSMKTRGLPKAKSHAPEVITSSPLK

SMILES | solubility [1] [µg/mL] | bioavailability [2] [%] | IC50 [3] [nM] | bioavailability [4] [%] | IC50 [5] [µM] | IC50 [6] [µM] | IC50 [7] [µM]
O=C(COc1ccc2[nH]c(-c3ccc(Cl)s3)nc2c1)Nc1ccc(N2CCOCC2=O)cc1 | < 10 | < 20 | 150 | < 20 | – | – | –
O=C(CNC(=O)Nc1ccc(Cl)cc1)Nc1ccc(N2CCOCC2=O)cc1 | < 10 | < 20 | 32 | < 20 | > 10 | – | > 10
O=C(Nc1ccc(N2CCOCC2=O)cc1)c1ccc2[nH]c(-c3ccc(Cl)s3)nc2c1 | < 10 | < 20 | – | < 20 | > 10 | > 10 | –
Cc1cc(NC(=O)Cc2ccc3[nH]c(-c4ccc(Cl)s4)nc3c2)ccc1N1CCOCC1=O | < 10 | < 20 | – | < 20 | – | – | –
CS(=O)(=O)c1ccccc1-c1ccc(NC(=O)Cc2ccc3[nH]c(-c4ccc(Cl)s4)nc3c2)cc1 | < 10 | < 20 | – | < 20 | > 10 | > 10 | –
Cc1cc(NC(=O)Cc2ccc3[nH]c(-c4ccc(Br)s4)nc3c2)ccc1N1CCOCC1=O | < 10 | < 20 | 41 | < 20 | – | – | –
Cc1cc(NC(=O)Cc2ccc3[nH]c(-c4ccc(Cl)s4)nc3c2)ccc1-n1ccccc1=O | < 10 | < 20 | 180 | < 20 | – | – | –
O=C(NCc1ccc2[nH]c(-c3ccc(Cl)s3)nc2c1)c1ccc(N2CCOCC2=O)cc1 | < 10 | < 20 | 440 | < 20 | > 10 | > 10 | –
O=C(CCc1ccc2[nH]c(-c3ccc(Cl)s3)nc2c1)Nc1ccc(N2CCOCC2=O)c(Cl)c1 | < 10 | < 20 | 7 | < 20 | > 10 | – | > 10
O=C(Cc1ccc(N2CCOCC2=O)cc1)Nc1ccc2[nH]c(-c3ccc(Cl)s3)nc2c1 | < 10 | < 20 | 1200 | < 20 | > 10 | > 10 | –
O=C(Cc1ccc2[nH]c(-c3ccc(Cl)s3)nc2c1)Nc1ccc(N2CCCCC2=O)cc1 | < 10 | < 20 | 260 | < 20 | > 10 | > 10 | –
CCC[C@@H](NC(=O)Nc1ccc(Cl)cc1)C(=O)Nc1ccc(N2CCOCC2=O)cc1 | < 10 | < 20 | – | < 20 | > 10 | – | > 10
Cc1cc(NC(=O)CCc2ccc3[nH]c(-c4ccc(Br)s4)nc3c2)ccc1N1CCOCC1=O | < 10 | < 20 | 8.4 | < 20 | > 10 | > 10 | –
Cc1cc(NC(=O)CCc2ccc3[nH]c(-c4ccc(Cl)s4)nc3c2)ccc1N1CCOCC1=O | < 10 | < 20 | 8.2 | < 20 | > 10 | > 10 | –
O=C(Cc1ccc2[nH]c(-c3ccc(Br)s3)nc2c1)NCC1CCN(c2ccncc2)CC1 | < 10 | < 20 | 5.2 | < 20 | > 10 | > 10 | –
O=C(Cc1ccc2[nH]c(-c3ccc(Br)s3)nc2c1)Nc1ccc(-n2ccccc2=O)cc1 | < 10 | < 20 | 63 | < 20 | > 10 | > 10 | –
O=C(Cc1ccc2[nH]c(-c3ccc(Cl)s3)nc2c1)NCC1CCN(c2ccncc2)CC1 | < 10 | < 20 | 14 | < 20 | > 10 | > 10 | –
O=C(CCc1ccc2nc(-c3ccc(Cl)s3)[nH]c2c1)Nc1ccc(N2CCOCC2=O)cc1F | < 10 | < 20 | – | < 20 | > 10 | – | > 10
O=C(CCc1ccc2[nH]c(-c3ccc(Cl)s3)nc2c1)Nc1ccc(N2CCOCC2=O)cc1 | < 10 | < 20 | – | < 20 | – | – | –

More lines, now with the values ahead:

solubility [1] [µg/mL] | bioavailability [2] [%] | IC50 [3] [nM] | bioavailability [4] [%] | IC50 [5] [µM] | IC50 [6] [µM] | IC50 [7] [µM] | SMILES
< 10 | < 20 | – | < 20 | > 10 | > 10 | – | CC1CC(=O)NN=C1c1ccc2[nH]c(-c3ccc(Cl)s3)nc2c1 (centres undefined)
< 10 | < 20 | 15 | < 20 | – | – | – | N=C(N)c1cccc(N[C@H](C(=O)Nc2ccc(N3CCCCC3=O)cc2)c2ccccc2)c1
< 10 | < 20 | 58 | < 20 | – | – | – | O=C(CCc1ccc2nc(-c3ccc(Br)s3)[nH]c2c1)NCC1CCN(c2ccncc2)CC1
< 10 | < 20 | 530 | < 20 | > 10 | > 10 | – | O=C(Cc1ccc2[nH]c(-c3ccc(Cl)s3)nc2c1)Nc1ccc(N2CCCC2=O)cc1
< 10 | < 20 | 980 | < 20 | > 10 | – | > 10 | CC1CC(=O)NN=C1c1ccc2[nH]c(-c3ccc(Br)s3)nc2c1 (centres undefined)
< 10 | < 20 | 7.6 | < 20 | > 10 | – | > 10 | O=C(CCc1ccc2[nH]c(-c3ccc(Cl)s3)nc2c1)Nc1ccc(-n2ccccc2=O)c(F)c1
< 10 | < 20 | 170 | < 20 | – | – | – | O=C(Cc1ccc2[nH]c(-c3ccc(Cl)s3)nc2c1)NCc1ccc(N2CCOCC2=O)cc1
< 10 | < 20 | – | < 20 | > 10 | > 10 | – | O=C(Cc1ccc2[nH]c(-c3ccc(Cl)s3)nc2c1)Nc1ccc(N2CCOCC2=O)cc1
< 10 | < 20 | 20 | < 20 | > 10 | > 10 | – | Cc1cc(NC(=O)COc2ccc3[nH]c(-c4ccc(Cl)s4)nc3c2)ccc1N1CCOCC1=O
